{"source": "PubChem BioAssay (NCI)", "assay_in_all_cases": "NCI-60 cell line screen, 48 h", "key": {"U251 CNS": {"test_system": "U251 CNS"}, "KM12 colon": {"test_system": "KM12 colon"}, "A549 NSCLC": {"test_system": "A549 NSCLC"}, "HS 578T breast": {"test_system": "HS 578T breast"}, "UACC-62 melanoma": {"test_system": "UACC-62 melanoma"}, "786-0 renal": {"test_system": "786-0 renal"}, "OVCAR-8 ovarian": {"test_system": "OVCAR-8 ovarian"}, "MDA-MB-435": {"test_system": "MDA-MB-435"}, "SN12C renal": {"test_system": "SN12C renal"}, "UACC-257 melanoma": {"test_system": "UACC-257 melanoma"}, "RXF 393 renal": {"test_system": "RXF 393 renal"}, "LOX IMVI melanoma": {"test_system": "LOX IMVI melanoma"}, "SW-620 colon": {"test_system": "SW-620 colon"}, "HL-60(TB) leukemia": {"test_system": "HL-60(TB) leukemia"}, "HOP-62 NSCLC": {"test_system": "HOP-62 NSCLC"}, "NCI-H226 lung": {"test_system": "NCI-H226 lung"}, "NCI/ADR-RES ovarian": {"test_system": "NCI/ADR-RES ovarian"}, "CCRF-CEM leukemia": {"test_system": "CCRF-CEM leukemia"}, "OVCAR-3 ovarian": {"test_system": "OVCAR-3 ovarian"}, "SK-OV-3 ovarian": {"test_system": "SK-OV-3 ovarian"}, "K-562 leukemia": {"test_system": "K-562 leukemia"}, "HCC-2998 colon": {"test_system": "HCC-2998 colon"}, "IGROV1 ovarian": {"test_system": "IGROV1 ovarian"}, "NCI-H522 lung": {"test_system": "NCI-H522 lung"}, "M14 melanoma": {"test_system": "M14 melanoma"}, "T-47D breast": {"test_system": "T-47D breast"}, "A498 renal": {"test_system": "A498 renal"}, "SF-268 CNS": {"test_system": "SF-268 CNS"}, "SF-539 CNS": {"test_system": "SF-539 CNS"}}, "note": "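A five-concentration, 48-hour dose response in 96-well plates underlies each endpoint, interpolated linearly between surrounding concentrations. At the GI50, growth is halved. Definition used: TGI = concentration required for complete inhibition of growth.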", "data": [{"compound": "C[C@H](Nc1cc(Cl)nc2c1cnn2[C@@H]1O[C@H](COP(=O)(O)CP(=O)(O)O)[C@@H](O)[C@H]1O)c1ccccc1F", "values": [{"measurement": "GI50", "setting": "U251 CNS", "value": "> 100", "unit": "µM"}, {"measurement": "TGI", "setting": "U251 CNS", "value": "> 100", "unit": "µM"}, {"measurement": "GI50", "setting": "KM12 colon", "value": "> 100", "unit": "µM"}, {"measurement": "TGI", "setting": "KM12 colon", "value": "> 100", "unit": "µM"}, {"measurement": "GI50", "setting": "A549 NSCLC", "value": "> 100", "unit": "µM"}, {"measurement": "TGI", "setting": "A549 NSCLC", "value": "> 100", "unit": "µM"}, {"measurement": "GI50", "setting": "HS 578T breast", "value": "> 100", "unit": "µM"}, {"measurement": "TGI", "setting": "HS 578T breast", "value": "> 100", "unit": "µM"}, {"measurement": "GI50", "setting": "UACC-62 melanoma", "value": "> 100", "unit": "µM"}, {"measurement": "TGI", "setting": "UACC-62 melanoma", "value": "> 100", "unit": "µM"}, {"measurement": "GI50", "setting": "786-0 renal", "value": "> 100", "unit": "µM"}, {"measurement": "TGI", "setting": "786-0 renal", "value": "> 100", "unit": "µM"}, {"measurement": "GI50", "setting": "OVCAR-8 ovarian", "value": "> 100", "unit": "µM"}, {"measurement": "TGI", "setting": "OVCAR-8 ovarian", "value": "> 100", "unit": "µM"}, {"measurement": "GI50", "setting": "MDA-MB-435", "value": "> 100", "unit": "µM"}, {"measurement": "TGI", "setting": "MDA-MB-435", "value": "> 100", "unit": "µM"}, {"measurement": "GI50", "setting": "SN12C renal", "value": "> 100", "unit": "µM"}, {"measurement": "TGI", "setting": "SN12C renal", "value": "> 100", "unit": "µM"}, {"measurement": "GI50", "setting": "UACC-257 melanoma", "value": "> 100", "unit": "µM"}, {"measurement": "TGI", "setting": "UACC-257 melanoma", "value": "> 100", "unit": "µM"}, {"measurement": "GI50", "setting": "RXF 393 renal", "value": "> 100", "unit": "µM"}, {"measurement": "TGI", "setting": "RXF 393 renal", "value": "> 100", "unit": "µM"}, {"measurement": "GI50", "setting": "LOX IMVI melanoma", "value": "> 100", "unit": "µM"}, {"measurement": "TGI", "setting": "LOX IMVI melanoma", "value": "> 100", "unit": "µM"}, {"measurement": "GI50", "setting": "SW-620 colon", "value": "> 100", "unit": "µM"}, {"measurement": "TGI", "setting": "SW-620 colon", "value": "> 100", "unit": "µM"}, {"measurement": "GI50", "setting": "HL-60(TB) leukemia", "value": "> 100", "unit": "µM"}, {"measurement": "TGI", "setting": "HL-60(TB) leukemia", "value": "> 100", "unit": "µM"}, {"measurement": "GI50", "setting": "HOP-62 NSCLC", "value": "> 100", "unit": "µM"}, {"measurement": "TGI", "setting": "HOP-62 NSCLC", "value": "> 100", "unit": "µM"}, {"measurement": "GI50", "setting": "NCI-H226 lung", "value": "> 100", "unit": "µM"}, {"measurement": "TGI", "setting": "NCI-H226 lung", "value": "> 100", "unit": "µM"}, {"measurement": "GI50", "setting": "NCI/ADR-RES ovarian", "value": "> 100", "unit": "µM"}, {"measurement": "TGI", "setting": "NCI/ADR-RES ovarian", "value": "> 100", "unit": "µM"}, {"measurement": "GI50", "setting": "CCRF-CEM leukemia", "value": "> 100", "unit": "µM"}, {"measurement": "TGI", "setting": "CCRF-CEM leukemia", "value": "> 100", "unit": "µM"}, {"measurement": "GI50", "setting": "OVCAR-3 ovarian", "value": "> 100", "unit": "µM"}, {"measurement": "TGI", "setting": "OVCAR-3 ovarian", "value": "> 100", "unit": "µM"}, {"measurement": "GI50", "setting": "SK-OV-3 ovarian", "value": "> 100", "unit": "µM"}, {"measurement": "TGI", "setting": "SK-OV-3 ovarian", "value": "> 100", "unit": "µM"}, {"measurement": "GI50", "setting": "K-562 leukemia", "value": "> 100", "unit": "µM"}, {"measurement": "TGI", "setting": "K-562 leukemia", "value": "> 100", "unit": "µM"}, {"measurement": "GI50", "setting": "HCC-2998 colon", "value": "> 100", "unit": "µM"}, {"measurement": "TGI", "setting": "HCC-2998 colon", "value": "> 100", "unit": "µM"}, {"measurement": "GI50", "setting": "IGROV1 ovarian", "value": "> 100", "unit": "µM"}, {"measurement": "TGI", "setting": "IGROV1 ovarian", "value": "> 100", "unit": "µM"}, {"measurement": "GI50", "setting": "NCI-H522 lung", "value": "> 100", "unit": "µM"}, {"measurement": "TGI", "setting": "NCI-H522 lung", "value": "> 100", "unit": "µM"}, {"measurement": "GI50", "setting": "M14 melanoma", "value": "> 100", "unit": "µM"}, {"measurement": "TGI", "setting": "M14 melanoma", "value": "> 100", "unit": "µM"}, {"measurement": "GI50", "setting": "T-47D breast", "value": "> 100", "unit": "µM"}, {"measurement": "TGI", "setting": "T-47D breast", "value": "> 100", "unit": "µM"}, {"measurement": "GI50", "setting": "A498 renal", "value": 32.3, "unit": "µM"}, {"measurement": "TGI", "setting": "A498 renal", "value": "> 100", "unit": "µM"}, {"measurement": "GI50", "setting": "SF-268 CNS", "value": "> 100", "unit": "µM"}, {"measurement": "TGI", "setting": "SF-268 CNS", "value": "> 100", "unit": "µM"}, {"measurement": "GI50", "setting": "SF-539 CNS", "value": "> 100", "unit": "µM"}]}]}
